We go through eleven compounds from patent US20240382490A1, “QUINAZOLINE-THIOHYDANTOIN FUSED HETEROCYCLES WHICH ARE SUITABLE FOR TREATING, AMELIORATING OR PREVENTING A PROLIFERATIVE DISORDER” (FRIEDRICH-ALEXANDER-UNIVERSITÄT ERLANGEN NÜRNBERG, priority 2021, published 2024).

Test [1] deals with multidrug resistant P glycoprotein-overexpressing CEM/ADR5000 cells. The following applies: previously reported (NPL-9, NPL-10), footnote calls them EC50; cited from earlier work.
Test [2] relates to wild-type CCRF CEM cells. The following applies: sensitive wild-type CCRF CEM cells; previously reported (NPL-9, NPL-10), footnote calls them EC50; cited from earlier work.
Test [3] has as its system human endometrium cells. The conditions noted are these: NPL-12, read-out: Healthy cells IC50 (human endometrium cells); cited from earlier work.
In test [4] the test system is multidrug resistant P glycoprotein-overexpressing CEM/ADR5000 cells. Description: IC50 in multidrug resistant CEM/ADR5000 leukemia cells. It is filed as cell-based, human.
In test [5] the test system is wild-type CCRF CEM cells. Description: IC50 in sensitive wild-type CCRF CEM leukemia cells. It is filed as cell-based, human.
The test system of test [6] is healthy human cells. In words: IC50 in healthy cells (selectivity). The following applies: for Activity against healthy cells relative to CEM/ADR5000 cells: healthy cells IC50 compared with CEM/ADR5000 IC50; for IC50: healthy human cells. It is filed as cell-based.
The test system of test [7] is human fibroblasts. The conditions noted are these: normal tissue cell line (human fibroblasts), NPL-11; read-out: Healthy cells IC50 (overall IC50 in human fibroblasts); cited from earlier work.
For test [8], the system named is K562 cells. Description: CellTiter-Blue cell viability assay, K562. It is filed as cell-based. The conditions noted are these: for IC50: five dose (0.01, 0.1, 1, 10, 100 μM) screening, 48 h treatment. As for the experimental part:
(§1) All leukemia cell lines (RPMI-8226, K562, HL-60, and MOLT-4) were obtained from NCI-DTP, NCI-Frederick, USA. Cells were cultured and maintained in RPMI-1640 (Corning, USA; #10-040-CV) media supplemented with 10% FBS (Corning, USA; #35-015-CV) and 1% penicillin-streptomycin-amphotericin B (GIBCO, USA; #15240-062) at 37° C. with 5% CO2. At 70 to 80% confluence cells were harvested and plated for cell viability assay.
(§2) Each leukemia cell line was plated at 3000 cells/well (in 100 μL complete media) in black-clear bottom 96-well plates (Corning, USA; #3603). After 24 h, cells were treated with respective compounds at one dose (10 μM) or five dose (0.01, 0.1, 1, 10, 100 μM) concentrations. After 48 h treatment, cell viability was recorded using CellTiter-Blue cell viability assay (Promega, USA; #G8081) as per the manufacturer's protocol.
(In general: Alamar Blue is a resazurin reagent that responds to reducing activity.)

The subject of test [9] is MOLT-4 cells. Description: CellTiter-Blue cell viability assay, MOLT-4. The conditions noted are these: five dose (0.01, 0.1, 1, 10, 100 μM) screening, 48 h treatment. It is filed as cell-based. As for the experimental part:
as §1, §2

Test [10] concerns RPMI-8226 cells. Description: CellTiter-Blue cell viability assay, RPMI-8226. It counts as cell-based. The conditions noted are these: five dose (0.01, 0.1, 1, 10, 100 μM) screening, 48 h treatment. As for the experimental part:
as §1, §2

Test [11] relates to HL-60 cells. In words: CellTiter-Blue cell viability assay, HL-60. The conditions noted are these: for IC50: five dose (0.01, 0.1, 1, 10, 100 μM) screening, 48 h treatment. It counts as cell-based. The procedure:
as §1, §2

Test [12] deals with human leukemia cell line (HAP1). Description: Cellular senescence in HAP1 cells. It is filed as cell-based. The conditions noted are these: mediated by oncogene Ras and downstream MAPK/pRb pathways, FIG. 4. The procedure: (§3) Quinazoline-thiohydantoin fused heterocycles 5g and 5k were to tested to determine whether they can inhibit MRTF-A nuclear localization to overcome resistance. First the localization of MRTF-A in a human leukemia cell line (HAP1) was analyzed. […] It was also tested whether 5g can activate cellular senescence.

Test [13] has as its system MRTF-A. Description: MRTF-A nuclear localization in HAP1 cells. It counts as cell-based. The conditions noted are these: human leukemia cell line HAP1, FIG. 4. The procedure: as §3
The mark [14] stands for this setting: one dose (10 μM), 48 h, FIG. 5A.

The structures appear in SMILES notation. Like-named read-outs stand apart in the source and are kept apart here.

As to `C[C@@H]1CC[C@H]2[C@@H](C)C(=O)O[C@@H]3O[C@@]4(C)CC[C@@H]1[C@]32OO4` [Artemisinin, artemisinin], the values for the IC50 in test [1], in test [2] and in test [3] were 26.9 ± 4.4 µM, 36.9 ± 6.9 µM and 69.6 µM, respectively.

Take `C[C@H](c1ccccc1)N1C(=O)C2=Nc3cc([N+](=O)[O-])ccc3CN2C1=S` [Compound 5d]: the IC50 in test [4] was found to be 0.127 ± 0.019 µM; in test [5] it was 0.14 ± 0.028 µM; in [6] it was 2.5 ± 0.8 µM. Also, the “Activity against healthy cells relative to CEM/ADR5000 cells” value in test [6] is reported as “fifteen to twenty times lower activity”.

Regarding `COc1cccc2c1C(=O)c1c(O)c3c(c(O)c1C2=O)C[C@@](O)(C(=O)CO)C[C@@H]3O[C@H]1C[C@H](N)[C@H](O)[C@H](C)O1` [Doxorubicin, doxorubicin], the concentration for half-maximal inhibition (IC50) was 1.8 µM in [7], 23.3 µM in test [1] and 0.009 µM in [2].

Consider `COc1ccc2c(c1)CN1C(=S)N(C(C)c3ccccc3)C(=O)C1=N2` (stereo not drawn) [Compound 5k], for which the IC50 in [4] was 1.33 ± 0.247 µM; in [8], 24.7 ± 4.01 µM; in [5] it was 1.53 ± 0.148 µM; in test [9] it was 28.7 ± 2.08 µM; in test [10], 14 ± 2.43 µM; in test [6], 1.9 ± 0.4 µM. For the same compound, the 50% inhibitory concentration (IC50) in test [11] is 41.1 ± 3.12 µM.

With `CC(c1ccccc1)N1C(=O)C2=Nc3ccc(Br)cc3CN2C1=S` (stereo not drawn) [Compound 5a], the IC50 in [4] was 0.409 ± 0.028 µM; in test [5] it was 0.483 ± 0.025 µM; in test [6], 2.2 ± 0.2 µM.

On to `CC(c1ccccc1)N1C(=O)C2=Nc3cc(Cl)ccc3CN2C1=S` (stereo not drawn) [Compound 5f], for which the IC50 in [4] was 0.156 ± 0.013 µM; in test [5], 0.228 ± 0.022 µM; in [6], 2.3 ± 0.7 µM. For the same compound, in [6], the “Activity against healthy cells relative to CEM/ADR5000 cells” value was “fifteen to twenty times lower activity”.

On to `O=C1C2=Nc3ccccc3CN2C(=S)N1c1ccc([N+](=O)[O-])cc1` [Compound 3a], for which the IC50 in test [4] is 26.8 ± 1.67 µM; in [5] it was 27.8 ± 2.6 µM; in [6], 19.8 ± 4.8 µM.

With `CC(C)c1cccc(C(C)C)c1N1C(=O)C2=Nc3ccccc3CN2C1=S` [Compound 3l], the IC50 in test [4] was determined as 19.1 ± 7.1 µM; in [5] it was 25.1 ± 6.49 µM; in test [6], 30.5 ± 0.5 µM.

Regarding `CC(c1ccccc1)N1C(=O)C2=Nc3cccc(Cl)c3CN2C1=S` (stereo not drawn) [Compound 5g], the 50% inhibitory concentration (IC50) turned out to be 0.146 ± 0.015 µM in test [4]; 7.8 ± 0.63 µM in [8]; 0.125 ± 0.024 µM in [5]; 18.5 ± 2.17 µM in test [9]; 15 ± 1.39 µM in test [10]; 2.8 ± 0.6 µM in test [6]. Further, in test [11], it took 9.9 ± 0.71 µM to reach half-maximal inhibition (IC50). The “One dose cell viability screening, K562” value in test [8] (setting [14]) is given as “more active compared to 5k”. In test [12], the “Activation of cellular senescence” value is given as “able to provoke a senescence response”. In addition, the “Effect on MRTF-A nuclear localization” value in test [13] is “efficiently increased cytoplasmic MRTF-A nuclear localization”. The “Activity against healthy cells relative to CEM/ADR5000 cells” value in test [6] is given as “fifteen to twenty times lower activity”. Moreover, the “One dose cell viability screening, HL-60” value in test [11] (setting [14]) is “more active compared to 5k”.

As for `CC(c1ccccc1)N1C(=O)C2=Nc3ccc(Cl)cc3CN2C1=S` (stereo not drawn) [Compound 5e], the IC50 in [4] was determined as 0.295 ± 0.083 µM; in test [5], 0.375 ± 0.043 µM; in test [6], 2.4 ± 0.5 µM.

As to `COc1cccc(N2C(=O)C3=Nc4ccccc4CN3C2=S)c1` [Compound 3j], the values for the 50% inhibitory concentration (IC50) in test [4], in test [5] and in test [6] were 28.1 ± 0.972 µM, 28.1 ± 0.831 µM and 42.8 ± 6.1 µM, respectively.

A word on the IC50: it is the concentration that inhibits the measured activity by half.
